Data from patent EP2439197A1, “Substituted benzimidazole derivatives as melanocortin 4 receptor antagonists” (Santhera Pharmaceuticals (Schweiz) AG, priority 2010, dated 2012).
Where two headings read alike, the source gives them in different places.

Tests used:
hMC-4R [1] = molecular target: T1, hMC-4R (Homo sapiens, UniProt P32245); assay: functional assay, homogeneous membrane based cAMP fluorescence polarization assay; type: biochemical; details: for Emax: read-out: % activation functional assay
T1 construct: expressed in transfected cells; host or cells: HEK293 cells (membrane preparations)

hMC-4R [2] = molecular target: T1, hMC-4R; assay: membrane binding assay, competition with fluorescence labeled NDP-alpha-MSH (fluorescence polarization)
Method: A membrane binding assay is used to identify competitive inhibitors of fluorescence labeled NDP-alpha-MSH binding to HEK293 cell membrane preparations expressing human melanocortin receptors.
The test compound or unlabeled NDP-alpha-MSH is dispensed at varying concentrations to a 384 well microtiter plate. Fluorescence labeled NDP-alpha-MSH is dispensed at a single concentration, followed by addition of membrane preparations. The plate is incubated for 5 h at room temperature.
The degree of fluorescence polarization is determined with a fluorescence polarization microplate reader.

[3] = HEK293 cell membrane preparations expressing human melanocortin receptors, read-out: hMC-4R binding assay IC50/µM

T1 sequence (P32245 whole entry): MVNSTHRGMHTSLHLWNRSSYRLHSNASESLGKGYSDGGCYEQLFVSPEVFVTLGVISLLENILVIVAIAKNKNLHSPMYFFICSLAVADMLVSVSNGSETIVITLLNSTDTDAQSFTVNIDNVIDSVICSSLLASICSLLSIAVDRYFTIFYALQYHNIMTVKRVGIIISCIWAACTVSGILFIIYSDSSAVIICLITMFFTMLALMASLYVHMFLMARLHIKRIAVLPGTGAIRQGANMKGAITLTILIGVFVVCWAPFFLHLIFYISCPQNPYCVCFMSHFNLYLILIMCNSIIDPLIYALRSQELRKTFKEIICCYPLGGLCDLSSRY

Row | Compound | Emax (hMC-4R [1]) [%] | IC50 (hMC-4R [2]) [µM] | EC50 (hMC-4R [1]) [µM] | IC50 (hMC-4R [2]; [3]) [µM] | EC50 (hMC-4R [1]; membrane preparations from HEK293 cells, cAMP production, read-out: hMC-4R functional assay EC50/µM) [µM]
1 | CC(C)CCN(CCC(C)C)C(=O)c1ccc2nc([C@H]3CC[C@H](N(C)C)CC3)n(CCCN3CCCC3)c2c1 [Example 17] | -6 | < 0.1 |  |  | 
2 | CC(C)CCN(CCC(C)C)C(=O)c1ccc2nc(C3CCN(C)CC3)n(CCCN3CCCC3)c2c1 [Example 24] | -44 | < 0.1 | < 0.1 |  | 
3 | CCCCN(CCCC)C(=O)c1ccc2nc(CC3CCN(C)CC3)n(CCCN3CCCC3)c2c1 [Example 39] | -8 | < 0.1 |  |  | 
4 | CC(C)CCN(CCC(C)C)C(=O)c1ccc2nc(C3CCC(=O)N(C)C3)n(CCCN3CCCC3)c2c1 (stereo not shown) [Example 37] | -2 | < 1 |  |  | 
5 | CC(C)CCN(CCC(C)C)C(=O)c1ccc2nc(-c3ccc(=O)[nH]c3)n(CC(O)CN3CCCC3)c2c1 (stereo not shown) [Example 1] | -15 | < 1 |  |  | 
6 | CC(C)CCN(CCC(C)C)C(=O)c1ccc2nc(C3CNC(=O)C3)n(CCCN3CCCC3)c2c1 (stereo not shown) [Example 34] | -10 | < 0.1 |  |  | 
7 | CC(C)CCN(CCC(C)C)C(=O)c1ccc2nc(CN3CCN(CCO)CC3)n(CCCN3CCCC3)c2c1 [Example 9] | -9 | < 0.1 |  |  | 
8 | CC(C)CCN(CCC(C)C)C(=O)c1ccc2nc(C3CN(C)C3)n(CCCN3CCCC3)c2c1 [Example 32] | -18 | < 0.1 | < 0.1 |  | 
9 | COc1ccc(C2(c3nc4ccc(C(=O)N(CCC(C)C)CCC(C)C)cc4n3CCCN3CCCC3)CC2)cn1 [Example 6] | -11 | < 1 |  |  | 
10 | CC(C)CCN(CCC(C)C)C(=O)c1ccc2nc(C3CCN(C(=O)OC(C)(C)C)CC3)n(CCCN3CCCC3C)c2c1 (stereo not shown) [Example 12] | -40 | < 0.1 | < 0.1 |  | 
11 | CC(C)CCN(CCC(C)C)C(=O)c1ccc2nc(CC3CCNCC3)n(CCCN3CCCC3)c2c1 [Example 28] | -6 |  |  | < 0.1 | 
12 | CC(C)CCN(CCC(C)C)C(=O)c1ccc2nc(CC3CCN(CCO)CC3)n(CCCN3CCCC3)c2c1 [Example 14] | -18 | < 0.1 |  |  | 
13 | COc1cc(Cc2nc3ccc(C(=O)N(CCC(C)C)CCC(C)C)cc3n2CCCN2CCCC2)ccn1 [Example 33] | 0 | < 0.1 |  |  | 
14 | CC(C)CCN(CCC(C)C)C(=O)c1ccc2nc(C3CCNCC3)n(CCCN3CCCC3C)c2c1 (stereo not shown) [Example 26] | -12 | < 0.1 |  |  | 
15 | CC(C)CCN(CCC(C)C)C(=O)c1ccc2nc(C3CCC(=O)NC3)n(CCCN3CCCC3)c2c1 (stereo not shown) [Example 35] | -11 | < 1 |  |  | 
16 | CC(C)CCN(CCC(C)C)C(=O)c1ccc2nc([C@H]3CC[C@@H](N(C)C)CC3)n(CCCN3CCCC3)c2c1 [Example 18] | -19 | < 0.1 |  |  | 
17 | CC(C)CCN(CCC(C)C)C(=O)c1ccc2nc(CC3CCN(C4COC4)CC3)n(CCCN3CCCC3)c2c1 [Example 15] | -11 | < 0.1 |  |  | 
18 | CC(C)CCN(CCC(C)C)C(=O)c1ccc2nc(C3CCN(C)C(=O)C3)n(CCCN3CCCC3)c2c1 (stereo not shown) [Example 36] | -5 | < 1 |  |  | 
19 | CCCCN(CCCC)C(=O)c1ccc2nc(CC3CCN(C(=O)OC(C)(C)C)CC3)n(CCCN3CCCC3)c2c1 [Example 19] | -33 | < 0.1 | < 0.1 |  | 
20 | CC(C)CCN(CCC(C)C)C(=O)c1ccc2nc(-c3ccc(=O)[nH]c3)n(CC(F)CN3CCCC3)c2c1 (stereo not shown) [Example 2] | -11 | < 0.1 |  |  | 

Row | Compound | Emax (hMC-4R [1]) [%] | IC50 (hMC-4R [2]) [µM] | EC50 (hMC-4R [1]) [µM] | IC50 (hMC-4R [2]; [3]) [µM] | EC50 (hMC-4R [1]; membrane preparations from HEK293 cells, cAMP production, read-out: hMC-4R functional assay EC50/µM) [µM]
21 | CC(C)CCN(CCC(C)C)C(=O)c1ccc2nc(CC3CCN(C)CC3)n(CCCN3CCCC3)c2c1 [Example 29] | -10 | < 0.1 |  |  | 
22 | CC(C)CCN(CCC(C)C)C(=O)c1ccc2nc(C3CCNCC3)n(CCCN3CCCC3)c2c1 [Example 23] | -39 | < 0.1 | < 0.1 |  | 
23 | CC(C)CCN(CCC(C)C)C(=O)c1ccc2nc(CC3CCN(C(=O)OC(C)(C)C)CC3)n(CCCN3CCCC3)c2c1 [Example 13] | -7 | < 0.1 |  |  | 
24 | CC(C)CCN(CCC(C)C)C(=O)c1ccc2nc(C3CN(C(=O)OC(C)(C)C)C3)n(CCCN3CCCC3)c2c1 [Example 16] | -9 |  |  | < 0.1 | 
25 | CC(C)CCN(CCC(C)C)C(=O)c1ccc2nc(C3CNC3)n(CCCN3CCCC3)c2c1 [Example 31] | -32 | < 0.1 | 0.1 to 1 |  | 
26 | CC(C)CCN(CCC(C)C)C(=O)c1ccc2nc(CN3CCN(C)CC3)n(CCCN3CCCC3)c2c1 [Example 8] | -6 |  |  | < 0.1 | 
27 | CC(C)CCN(CCC(C)C)C(=O)c1ccc2nc(C3CCN(C(=O)OC(C)(C)C)CC3)n(CCCN3CCCC3)c2c1 [Example 11] | -33 | < 0.1 | < 0.1 |  | 
28 | COc1ccc(-c2nc3ccc(C(=O)N(CCC(C)C)CCC(C)C)cc3n2CC(O)CN2CCCC2)cn1 (stereo not shown) [Example 3] | -25 |  |  | < 0.1 | 0.1 to 1
29 | CCCCN(CCCC)C(=O)c1ccc2nc(CC3CCN(C4COC4)CC3)n(CCCN3CCCC3)c2c1 [Example 20] | 0 | < 1 |  |  | 
30 | CCCCN(CCCC)C(=O)c1ccc2nc(CC3CCNCC3)n(CCCN3CCCC3)c2c1 [Example 38] | -5 | < 0.1 |  |  | 
31 | CC(C)CCN(CCC(C)C)C(=O)c1ccc2nc(CN3CCN(C(C)C)CC3)n(CCCN3CCCC3)c2c1 [Example 10] | 0 | < 1 |  |  | 
32 | CC(C)CCN(CCC(C)C)C(=O)c1ccc2nc(C3CCN(C)CC3)n(CCCN3CCCC3C)c2c1 (stereo not shown) [Example 27] | -2 |  |  | < 0.1 | 
33 | CC(C)CCN(CCC(C)C)C(=O)c1ccc2nc(-c3cnc(O)nc3)n(CCCN3CCCC3)c2c1 [Example 30] | -12 | < 1 |  |  | 
34 | CC(C)CCN(CCC(C)C)C(=O)c1ccc2nc(N3CCN(C)CC3)n(CCCN3CCCC3)c2c1 [Example 7] | -4 | 1 to 10 |  |  | 
35 | COc1cc(C2(c3nc4ccc(C(=O)N(CCC(C)C)CCC(C)C)cc4n3CCCN3CCCC3)CC2)ccn1 [Example 5] | -6 | < 1 |  |  | 
36 | CC(C)CCN(CCC(C)C)C(=O)c1ccc2nc(-c3ccc(=O)[nH]c3)n(CCCN3CCCC3)c2c1 [Example 21] | -14 | < 0.1 |  |  | 
37 | CC(C)CCN(CCC(C)C)C(=O)c1ccc2nc(-c3ncco3)n(CC(O)CN3CCCC3)c2c1 (stereo not shown) [Example 4] | -28 | < 0.1 | < 0.1 |  | 
38 | CC(C)CCN(CCC(C)C)C(=O)c1ccc2nc(-c3ccc(=O)[nH]c3)n(CCCN3CCCC3C)c2c1 (stereo not shown) [Example 25] | -37 | < 0.1 | < 0.1 |  | 
39 | CC(C)CCN(CCC(C)C)C(=O)c1ccc2nc(-c3ccc(=O)[nH]c3)n(CCCN3CCCCC3)c2c1 [Example 22] | -12 |  |  | < 0.1 | 
